According to patent US11685741B2, “Fluorescent probes” (University of Massachusetts, priority 2017, dated 2023):
Values joined by “and” are separate entries in the source; they are usually repeats but may differ in a detail not shown here. Equal entries are not always repeated.

What was measured:
[1] = system: primary human fibroblast cells (ws1); assay: Confocal imaging of Fe2+ with Rh6GD in ws1 cells; format: cell-based
Procedure: Human primary fibroblast ws1 cells were grown at 37° C. in a humid atmosphere of 5% CO2 atmosphere in eagle's minimum essential medium (EMEM, ATCC) supplemented with 10% fetal bovine serum (FBS, ATCC). Cultures were divided into 1:2 every 48 h to an approximate cell density of 1.21 million cells/ml and used for experiments after 24 h.
A Zeiss LSM 710 laser-scanning confocal microscope system was used for cell imaging experiments. 40× oil-immersion objective lens were used to perform all the experiments. For imaging with the Rh6GD sensor, excitation wavelength of the laser was 543 nm and emissions were collected over the range 545-625 nm. For images with MitoTracker Green FM, LysoTracker Deep Red, excitation wavelengths recommended by the manufacturer were 488 nm for MitoTracker, 633 nm for LysoTracker. Emissions were integrated at 492-535 nm (MitoTracker), 650-800 nm (LysoTracker), respectively.
Ws1 cells, at an approximately density of 1.2 million/ml in complete EMEM medium, were incubated with 100 μM ferrous ammonium sulfate (FAS, Fe (NH4)2(SO4)2 from a 10 mM stock solution) for overnight at 37° C. in a humid atmosphere of 5% CO2 and then the cells were washed with fresh EMEM medium to remove excess Fe^2+. Then cells were incubated with Rh6GD (10 μM, from 500 μM stock solution in DMF) at 37° C. for 30 min and then cells were washed with EMEM media and then imaged. In addition, some cells were treated firstly with 100 μM Fe^2+ overnight and then the cells were washed with fresh EMEM medium. For chelation experiments, Fe^2+-loaded cells or untreated cells were incubated with 1 mM 2,2′-bipyridyl (Bpy) at 37° C. for 30 min, then sensor was added followed by washing with the media, and then imaging was done. Controls were imaged without incubation with Fe^2+ or 2,2′-bipyridyl.
The ability of Rh6GD to detect Fe^2+ in primary human fibroblast cells (ws1) was investigated by using confocal microscopy. […] For Fe^2+ repleting conditions, live ws1 cells were incubated with 100 μM of ferrous ammonium sulfate (Fe (NH4)2(SO4)2) at 37° C. for overnight followed by washing with EMEM medium to remove excess Fe^2+ and then 10 μM of Rh6GD was added to the culture media and was incubated at 37° C. for 30 min. […] This fluorescent intensity is almost the same as that of cells without Fe^2+ or Bpy treatment (FIG. 34B).
To explore this, the distribution of exchangeable Fe^2+ pools in live ws1 cells were further investigated using Rh6GD, together with colocalization experiments using other dyes such as MitoTracker Green FM (a green fluorescent dye which localizes to mitochondria in live cells regardless of mitochondrial membrane potential) and LysoTracker Deep Red (a fluorescent dye that stains acidic compartments such as endosomes and lysosomes in live cells). […]

[2] = Metal ion sensing: UV-vis and fluorescence response to Fe3+ and other metal ions
Procedure: The spectroscopic properties of Rh-PK and its interactions with various metal ions were evaluated in acetonitrile (ACN)/Tris-HCl buffer (10 mM, pH 7.3, v/v, 3:1). […] The changes in UV-Vis spectra after the addition of various ions are shown in FIG. 2, which is an absorbance spectrum of 100 μM sensor with various metal ions (100 μM for Ni^+2, Cu^+, Cu^+2, Zn^+2, Pb, Fe^+2, Fe^+3, Cr^+3, Hg^+2, Mn^+2, Ag^+, and Co^+2; 200 μM for K^+, Na^+, Ca^2+ and Mg^2+) in the ACN/Tris buffer (10 mM, pH 7.3, v/v 3:1).
When Fe^3+ was added into the solution of Rh-PK, a significant enhancement of fluorescence (>12-fold with 1.0 equiv of Fe^3+) was observed.
The interferences from the other metal ions with Rh-PK in its response to Fe^3+ was examined. […] Each of the 12 metal ions was pre-incubated with Rh-PK before 1 equiv. of Fe^3+ was added, the fluorescence response was then measured.
The stock solution of sensor and metal ions were prepared at the concentration of 1 mM. M. P. Walkees, Mutat. Res., 2003, 533, 107; M. Waisberg, et al., Toxicology, 2003, 192, 95.
The UV-vis. and fluorescence spectra of RhHPA to various possible interfering metal ions and its selectivity for Fe^3+ were examined. See FIG. 6, which is a plot of absorbance dependent on the concentration of Fe^3+ in the range from 0 to 2 equivalents in ACN/Tris-HCl buffer (10 mM, pH 7.3, v/v 2:1); FIG. 7, which is a Job's plot between Fe^3+ and RhHPA, indicating the 1:1 binding mode for sensor and iron(III). […] Addition of Na^+, K^+, Ca^2+, Mg^2+, Cr^3+, […], Hg^2+, Cu^2+, Pb^2+, Zn^2+, Fe^2+, Co^2+, Ni^2+, and Ag^+ exerted little or no effect on the emission of RhHPA, while remarkable fluorescence enhancement was detected upon the addition of Fe^3+ by excitation of the rhodamine fluorophore at 535 nm.
Experiments of iron(III) with other metal ions were investigated by means of the fluorescence response of RhHPA toward Fe^3+ in the presence of various other metal ions such as Na^+, K^+, Ca^2+, Mg^2+, Cr^3+, Hg^2+, Cu^2+, Pb^2+, Zn^2+, Fe^2+, Co^2+, Ni^2+, Cd^2+, and Ag^+. […] for Fe^3+ had no changes with addition of other metal ions. Cu(II) and Zn(II) increased the fluorescence intensity slightly.

[3] = Rh-PK + Fe^3+, ACN/Tris-HCl buffer pH 7.3 v/v 3:1

Row | Structure (SMILES) | fluorescence of cells with sensor only ([1]; 10 μM Rh6GD) | fluorescence of cells treated with Fe^2+ then Bpy ([1]; 100 μM Fe^2+ overnight, Bpy, 10 μM Rh6GD, versus Fe^2+ supplement) | fluorescence of Fe^2+-treated cells versus unsupplemented ([1]; 100 μM ferrous ammonium sulfate overnight, then 10 μM Rh6GD 30 min) | fluorescence of Bpy-treated cells ([1]; Bpy, then 10 μM Rh6GD, versus sensor only) | Φ [2, 3] | ε of absorption peak at 555 nm [2, 3] | increase in fluorescence emission intensity ([2]; one equivalent Fe^3+, ACN/Tris-HCl buffer pH 7.3)
1 | CCNc1cc2c(cc1C)C1(c3cc(C)c(NCC)cc3O2)c2ccccc2C(=O)N1/N=C/C=C/c1ccc(N(C)C)cc1 [Rh6GD, 2-(((1E,2E)-3-(4-(dimethylamino)phenyl)allylidene)amino)-3′,6′-bis(ethylamino)-2′,7′-dimethylspiro[isoindoline-1,9′-xanthen]-3-one] | weak fluorescence | marked decrease in fluorescent intensity | significant increase in fluorescent signals | significantly decrease in fluorescence signal |  |  | 
2 | CCN(CC)c1ccc2c(c1)Oc1cc(N(CC)CC)ccc1C21c2ccccc2C(=O)N1CC/N=C(\C)c1cccc(C(C)=O)n1 [Rh-PK, (E)-2-(2-((1-(6-acetylpyridin-2-yl)ethylidene)amino)ethyl)-3′,6′-bis(diethylamino)spiro[isoindoline-1,9′-xanthen]-3-one] |  |  |  |  | 0.173 | 3200 M⁻¹ cm⁻¹ | ~12 fold and > 12 fold
